The values that follow come from PMC10256202, “Allosteric regulation of Senecavirus A 3C^pro proteolytic activity by an endogenous phospholipid” (PLOS Pathogens, 2023).

The target in the experiment is T1, SVA 3C^pro (Seneca Valley virus USA/SSV-001, UniProt Q155Z9).
T1 construct: full-length mature 3C cut from the genome polyprotein; codon-optimized, E. coli BL21(DE3); N-terminal His6-SUMO tag removed by ULP1 (lipid strips: His-tagged protein)
Description: CL-specific ELISA of lipid co-purified with the protein. To be noted: endogenous E. coli lipid extracted by heating; lipid-binding (allosteric) site. On the technique in general: ELISA stands for enzyme-linked immunosorbent assay.

T1 sequence (Q155Z9 1509-1719): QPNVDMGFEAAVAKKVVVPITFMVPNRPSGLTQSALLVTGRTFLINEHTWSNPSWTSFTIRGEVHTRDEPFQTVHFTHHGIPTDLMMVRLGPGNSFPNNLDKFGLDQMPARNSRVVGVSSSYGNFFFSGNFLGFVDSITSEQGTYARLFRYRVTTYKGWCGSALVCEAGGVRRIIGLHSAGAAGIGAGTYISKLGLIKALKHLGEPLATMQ

In the case of cardiolipin [CL], the lipid content is reported as ~ 24.2 μg/L.
